In general, GI50 refers to the concentration that inhibits growth by half. Lower therefore signals greater sensitivity of the cells.

Here are results for one compound from publication PMC6327044, “A chemical biology screen identifies a vulnerability of neuroendocrine cancer cells to SQLE inhibition” (Nature Communications, 2019).

What all share (assay): cells
Common to all, as to design: species or system panel of 482 human cancer cell lines; ATPLite luminescence growth inhibition after treatment, nine-point dilution curve, 482 cancer cell lines, 384-well
Common to all, as to conditions: 72 h, recommended growth medium
A general note: Cellular ATP, detected with luciferase, serves as a proxy for viable cell number.

One assay relates to NCIH2171_LUNG. A digest of the protocol:
(§1)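 Growth inhibition was measured across a panel of 482 cancer cell lines. Cells were plated at 500 cells per well in recommended growth media in black, tissue culture treated 384-well plates, centrifuged to equilibrate, and incubated 24 h before dosing. Compounds were tested as nine-point dilution curves for 72 h, with viability read by ATPLite luminescence relative to DMSO-treated controls.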

In a further assay the test system is SNU601_STOMACH. A digest of the protocol:
as §1

Assay [1] relates to KPNRTBM1_AUTONOMIC_GANGLIA. The method, boiled down:
as §1

The test system of assay [2] is SUDHL5_HAEMATOPOIETIC_AND_LYMPHOID_TISSUE. A digest of the protocol:
as §1

Another assay deals with NCIH1623_LUNG. A digest of the protocol:
as §1

A further assay deals with SW1116_LARGE_INTESTINE
The method, boiled down:
as §1

The next assay deals with NCIH2110_LUNG. A digest of the protocol:
as §1

The subject of a further assay is TE6_OESOPHAGUS
The method, boiled down:
as §1

The next assay concerns TGBC11TKB_STOMACH. A digest of the protocol:
as §1

For the next assay, the system named is EVSAT_BREAST. A digest of the protocol:
as §1

The subject of assay [3] is SUDHL4_HAEMATOPOIETIC_AND_LYMPHOID_TISSUE. A digest of the protocol:
as §1

The subject of a further assay is NCIH1869_LUNG. A digest of the protocol:
as §1

Another assay deals with MKN45_STOMACH. A digest of the protocol:
as §1

The subject of the next assay is NCIH1666_LUNG. A digest of the protocol: as §1
A further assay has as its system BEN_LUNG. A digest of the protocol: as §1
The subject of assay [4] is TMD8_HAEMATOPOIETIC_AND_LYMPHOID_TISSUE. A digest of the protocol:
as §1

Assay [5] has as its system JVM13_HAEMATOPOIETIC_AND_LYMPHOID_TISSUE. The method, boiled down:
as §1

In the case of `CCN(C/C=C/C#CC(C)(C)C)Cc1cccc(OCc2cc(-c3ccsc3)cs2)c1` [NB-598], the GI50 in the assay with NCIH2171_LUNG stood at 2.27 µM; with SNU601_STOMACH, 5.4 µM; in assay [1] it was 3.49 µM; in assay [2], 0.0255 µM; in the assay with NCIH1623_LUNG it was 0.0194 µM; in the assay on SW1116_LARGE_INTESTINE it was 19.1 µM. Besides, the GI50 came out at 36.2 µM with NCIH2110_LUNG; 9.28 µM in the assay on TE6_OESOPHAGUS; 2.98 µM in the assay on TGBC11TKB_STOMACH; 32.4 µM with EVSAT_BREAST; 10.6 µM in assay [3]; 0.0152 µM in the assay on NCIH1869_LUNG. Moreover, the GI50 was determined as 0.605 µM in the assay on MKN45_STOMACH; 0.0249 µM in the assay with NCIH1666_LUNG; 21.4 µM in the assay with BEN_LUNG; 0.131 µM in [4]; 9.61 µM in [5].
